Where a name gives a salt, the structure may show the parent alone. Where a SMILES comes first, the peptide text is derived from it.
Assay: Water solubility of the salts (qualitative remark in the preparation)
Assay type: physicochemical
Settings: qualitative description of the isolated salt
Procedure: H-Thr-Asp-D-Tyr-OH is dissolved in 5 volumes of water, and the solution is added with an equivalent amount of 1N HCl.
The solution is concentrated to small volume under vacuum and added with acetone.

Row | water solubility of the isolated powder | SMILES
1 | very water soluble | C[C@@H](O)[C@H](N)C(=O)N[C@@H](CC(=O)O)C(=O)N[C@H](Cc1ccc(O)cc1)C(=O)O [H-Thr-Asp-D-Tyr-OH hydrochloride] (HELM PEPTIDE1{T.D.[dY]}$$$$V2.0)
2 | freely water soluble | C[C@@H](O)[C@H](N)C(=O)N[C@@H](CC(=O)O)C(=O)N[C@@H](Cc1ccc(O)cc1)C(=O)O [H-Thr-Asp-Tyr-OH lysine salt] (H-Thr-Asp-Tyr-OH)

Reference: patent US5182265A, “Pharmacologically active peptide derivatives and pharmaceutical preparations containing them” (SPA Societa' Prodotti Antibiotici S.p.A., priority 1989, dated 1993)
